Laboratory results as given in PMC8491018, “Improved virus-induced gene silencing allows discovery of a serpentine synthase gene in Catharanthus roseus” (Plant Physiology, 2021).

What was measured:
[1] = biological target: T1, serpentine synthase (SS, CrSS) (Catharanthus roseus, UniProt A0A8F5R546); assay: LC-MS of product alstonine, yeast cultures expressing CrSS and yeast microsomes; type: biochemical; details: 30 uM substrate; microsomes: 150 uM NADPH, HEPES-NaOH pH 7.5, 30 C, 60 min; AaCPR co-expressed
T1 construct: predicted TM helix aa 7-24 FWSLPAIALLQVFLFFLF; 6HIS version (in planta) about 59 kDa
T1 sequence (A0A8F5R546 1-511): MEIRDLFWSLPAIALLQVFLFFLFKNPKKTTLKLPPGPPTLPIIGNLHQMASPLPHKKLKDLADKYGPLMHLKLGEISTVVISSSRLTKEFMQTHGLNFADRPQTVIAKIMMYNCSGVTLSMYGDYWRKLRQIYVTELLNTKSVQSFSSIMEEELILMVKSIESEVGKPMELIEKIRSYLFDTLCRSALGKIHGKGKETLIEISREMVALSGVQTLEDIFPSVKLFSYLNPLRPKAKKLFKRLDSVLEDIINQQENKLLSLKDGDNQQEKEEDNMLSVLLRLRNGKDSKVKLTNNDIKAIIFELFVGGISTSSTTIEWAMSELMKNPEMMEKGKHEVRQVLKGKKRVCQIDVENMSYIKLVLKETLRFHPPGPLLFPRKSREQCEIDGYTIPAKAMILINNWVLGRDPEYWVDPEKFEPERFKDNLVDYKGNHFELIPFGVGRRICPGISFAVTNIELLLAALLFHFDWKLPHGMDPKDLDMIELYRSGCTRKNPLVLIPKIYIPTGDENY

[2] = biological target: T1, serpentine synthase (SS, CrSS); assay: LC-MS of product serpentine, yeast cultures expressing CrSS and yeast microsomes; type: biochemical; details: 30 uM substrate; microsomes: 150 uM NADPH, HEPES-NaOH pH 7.5, 30 C, 60 min; AaCPR co-expressed

COC(=O)C1=CO[C@@H](C)[C@@H]2CN3CCc4c([nH]c5ccccc45)[C@@H]3C[C@H]12 [THA]
LC-MS of product alstonine, yeast cultures expressing CrSS and yeast microsomes [1]: this cytochrome P450 could also produce alstonine from THA

COC(=O)C1=CO[C@@H](C)[C@H]2CN3CCc4c([nH]c5ccccc45)[C@@H]3C[C@H]12 [ajmalicine]
LC-MS of product serpentine, yeast cultures expressing CrSS and yeast microsomes [2]: CrSS produced serpentine from ajmalicine when incubated in the media of yeast cultures expressing CrSS
